Laboratory results as given in patent US4642314A, “Antiulcer compounds” (Nisshin Flour Milling Co., Ltd., priority 1984, dated 1987).

Key:
reserpine-induced ulcer = assay: Reserpine-induced ulcer (Preventive test); type: in vivo, rat (male SD rats); details: Table 1; rat, 100 mg/kg oral, 30 min before reserpine 15 mg/kg i.p.; evaluated at 18 h; read-out: Preventive effect (preventive ratio)
Procedure: (§1) In the case of reserpine-induced ulcer, the assay was performed according to the description in "Arch. Int. Pharmacodym. Ther. 147,113 (1964)", and in the case of acetic acid-induced ulcer, the assay was performed according to the method described in "Jap. J. Pharmac. 19,418 (1969)", by inducing experimental ulcer in rat and evaluating the effect thereon of the compounds tested.
Groups of rats, each consisting of 6 male SD rats weighing 150-200 g were used. After 24 hours' fasting, a sample compound was orally administered to the rat at the dose of 100 mg/kg body weight, and 30 minutes after the administration, reserpine was intraperitoneally injected at the dose of 15 mg/kg body weight. Eighteen hours after the administration, the rats were killed with chloroform. The stomach was taken out, and severity of the hemorrhaging lesion was evaluated according to the method as above ("Arch. Int. Pharmacodym. Ther. 147,113 (1964)).
The preventive ratio was calculated using the following equation, [formula] wherein the control animals were intraperitoneally given reserpine only, at the dose of 15 mg/kg body weight.

[1] = tested on: acetic acid-induced ulcer; assay: Acetic acid-induced ulcer (Curative test); type: in vivo, rat (male SD rats); details: Table 2; rat, 0.05 ml of 15% acetic acid underneath the serosa; lesion area on 14th day
Procedure: as §1
Groups of rats, each consisting of 6 male SD rats weighing 150-200 g were used. The stomach of ether-anesthesized rat was exposed and while taking acre not to injure blood vessels, 0.05 ml of 15% aqueous acetic acid solution was injected underneath the serosa. On the 14th day, the rats were killed with chloroform, the stomach taken out and the area of the infected lesion measured.
The curative ratio was calculated using the above equation: [formula]

[2] = acute toxicity (LD50), intraperitoneal route in mice; type: in vivo; details: mouse, in vivo, ip
mice = assay: as above; type: in vivo

Row | Compound | inhibition in vivo at 100 mg/kg (reserpine-induced ulcer) [%] | Curative effect (curative ratio) [1] | LD50 ([2]; Table 2) [mg/kg] | LD50 (mice; Table 1) [g/kg] | LD50 ([2]; Table 1) [mg/kg] | LD50 (mice; Table 2) [g/kg]
1 | C/C(=C\CCC(=O)O)CCC[C@H](C)CCC[C@H](C)CCCC(C)C [Phytylacetic acid] | 10 to 40 | + (10%-25%) | > 5000 | > 5 | – | –
2 | CC(C)CCCC(C)CCCC(C)CCCC(C)CCCC(C)CCCC(C)CCCC(C)CCCC(C)CCCC(C)CCCC(C)CCO (stereo not shown) [Saturated decaprenol] | 10 to 40 | ++ (25%-40%) | – | – | > 5000 | > 5
3 | CC(C)=CCC/C(C)=C/CC/C(C)=C/CC/C(C)=C/CC/C(C)=C/CC/C(C)=C/CC/C(C)=C/CC/C(C)=C/CC/C(C)=C/CO [Solanesol] | 10 to 40 | ++ (25%-40%) | – | – | > 4000 | > 4
4 | CCCCCCCC/C=C\CCCCCCCC(=O)OCC=C(C)CCC=C(C)CCC=C(C)CCC=C(C)CCC=C(C)CCC=C(C)CCC=C(C)CCC=C(C)CCC=C(C)C [Solanesyl oleate] | 10 to 40 | ++ (25%-40%) | > 4000 | > 4 | – | –
5 | CC(C)=CCCC(C)=CCCC(C)=CCCC(=O)Oc1c(C)c(C)c2c(c1C)CCC(C)(CCCC(C)CCCC(C)CCCC(C)C)O2 (stereo not drawn) [α-Tocopheryl farnesylacetate] | 40 to 60 | ++ (25%-40%) | > 4000 | > 4 | – | –
6 | CC(C)=CCCC(C)=CCCC(=O)Oc1c(C)c(C)c2c(c1C)CCC(C)(CCCC(C)CCCC(C)CCCC(C)C)O2 (stereo not drawn) [α-Tocopheryl geranylacetate] | 40 to 60 | + (10%-25%) | > 4000 | > 4 | – | –
7 | CC(=CCCC(=O)Oc1c(C)c(C)c2c(c1C)CCC(C)(CCCC(C)CCCC(C)CCCC(C)C)O2)CCCC(C)CCCC(C)CCCC(C)C (stereo not drawn) [α-Tocopheryl phytylacetate] | 10 to 40 | +++ (40%-) | > 4000 | > 4 | – | –
